These are literature values, as cited in patent US20050282838A1, “Compounds, compositions, and methods” (priority 2003, published 2005).

In general, GI50 refers to the concentration that inhibits growth by half.

The series relates to A549 cells. The note with it: data provided by National Cancer Institute.
Take `COc1cccc2c1C(=O)c1c(O)c3c(c(O)c1C2=O)C[C@@](O)(C(=O)CO)C[C@@H]3O[C@H]1C[C@H](N)[C@H](O)[C@H](C)O1` [doxorubicin]: the GI50 was 0.063 µM. As for `NC(=O)NO` [hydroxyurea], the concentration for 50% growth inhibition (GI50) was 500 µM. With `CC(=O)O[C@H]1C(=O)[C@@]2(C)[C@H]([C@H](OC(=O)c3ccccc3)[C@]3(O)C[C@H](OC(=O)[C@H](O)[C@@H](NC(=O)c4ccccc4)c4ccccc4)C(C)=C1C3(C)C)[C@]1(OC(C)=O)CO[C@@H]1C[C@@H]2O` [paclitaxel], the concentration for 50% growth inhibition (GI50) was 0.004 µM. Take `O=c1[nH]cc(F)c(=O)[nH]1` [5-fluorouracil]: the GI50 is 1 µM.
